One data set has as its target PDE 10A1 (Homo sapiens, UniProt Q9Y233). The settings on record: Gibson et al., Eur. J. Pharmacol. 2006; cited from earlier work.
A further data set relates to MIF. As to the kind of experiment: plasma level of MIF after ibudilast. The settings on record: found by the inventors; no data given.
The target of another data set is PDE 11A1 (Homo sapiens, UniProt Q9HCR9). The settings on record: Gibson et al., Eur. J. Pharmacol. 2006; cited from earlier work.
Another data set addresses PDE 3A (Homo sapiens, UniProt Q14432). The settings on record: Gibson et al., Eur. J. Pharmacol. 2006; cited from earlier work.
For data set [1], the target named is T1, macrophage inhibitory factor (MIF) (Homo sapiens, UniProt P14174).
T1 sequence (P14174 2-115 limits assumed): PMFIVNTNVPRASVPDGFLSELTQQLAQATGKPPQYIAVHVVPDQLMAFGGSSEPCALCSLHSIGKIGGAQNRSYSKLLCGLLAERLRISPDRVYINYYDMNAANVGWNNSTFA
The settings on record: Cho et al., PNAS-USA 2010; cited from earlier work.

Another data set has as its system PDE 4. The settings on record: Gibson et al., Eur. J. Pharmacol. 2006; cited from earlier work.
The target in data set [2] is toll-like receptor-4 (TLR4) (Homo sapiens, UniProt O00206). The settings on record: Yang et al., Cell Death and Disease 2016; cited from earlier work.
Sequence of toll-like receptor-4 (TLR4) (O00206 24-839, species assumed): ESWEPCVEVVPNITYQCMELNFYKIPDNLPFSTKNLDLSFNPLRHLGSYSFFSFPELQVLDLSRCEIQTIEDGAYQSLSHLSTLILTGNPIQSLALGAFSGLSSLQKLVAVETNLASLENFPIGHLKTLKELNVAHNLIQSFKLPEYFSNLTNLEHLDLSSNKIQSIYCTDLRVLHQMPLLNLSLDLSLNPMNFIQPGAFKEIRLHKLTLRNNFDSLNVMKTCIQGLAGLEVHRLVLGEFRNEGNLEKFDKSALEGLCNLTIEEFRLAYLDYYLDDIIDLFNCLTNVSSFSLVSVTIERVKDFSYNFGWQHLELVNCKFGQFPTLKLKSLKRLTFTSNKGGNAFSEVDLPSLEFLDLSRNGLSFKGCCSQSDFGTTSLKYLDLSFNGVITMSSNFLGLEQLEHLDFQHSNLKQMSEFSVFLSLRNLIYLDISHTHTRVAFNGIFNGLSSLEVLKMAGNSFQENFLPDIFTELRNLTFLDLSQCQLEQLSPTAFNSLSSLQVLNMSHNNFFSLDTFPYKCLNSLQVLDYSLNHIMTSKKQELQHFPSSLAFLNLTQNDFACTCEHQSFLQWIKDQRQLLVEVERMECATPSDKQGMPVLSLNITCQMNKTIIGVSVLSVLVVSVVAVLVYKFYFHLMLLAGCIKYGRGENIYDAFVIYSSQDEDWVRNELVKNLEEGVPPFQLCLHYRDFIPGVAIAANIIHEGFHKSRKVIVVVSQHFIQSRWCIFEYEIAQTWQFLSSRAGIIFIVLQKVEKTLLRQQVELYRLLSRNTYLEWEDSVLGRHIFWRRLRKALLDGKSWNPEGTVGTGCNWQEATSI
Sequence of toll-like receptor-4 (TLR4) (Q9Y6Y9 17-160 partner limits assumed, species assumed): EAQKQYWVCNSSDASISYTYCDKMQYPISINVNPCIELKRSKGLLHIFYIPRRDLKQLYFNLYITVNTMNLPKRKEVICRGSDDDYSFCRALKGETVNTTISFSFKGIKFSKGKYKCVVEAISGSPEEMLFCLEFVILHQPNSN
The conditions of data set [3]: Sanftner et al Xenobiotica 2009; cited from earlier work.

Sequence of PDE 10A1 (Q9Y233 1-779 isoform Q9Y233-1): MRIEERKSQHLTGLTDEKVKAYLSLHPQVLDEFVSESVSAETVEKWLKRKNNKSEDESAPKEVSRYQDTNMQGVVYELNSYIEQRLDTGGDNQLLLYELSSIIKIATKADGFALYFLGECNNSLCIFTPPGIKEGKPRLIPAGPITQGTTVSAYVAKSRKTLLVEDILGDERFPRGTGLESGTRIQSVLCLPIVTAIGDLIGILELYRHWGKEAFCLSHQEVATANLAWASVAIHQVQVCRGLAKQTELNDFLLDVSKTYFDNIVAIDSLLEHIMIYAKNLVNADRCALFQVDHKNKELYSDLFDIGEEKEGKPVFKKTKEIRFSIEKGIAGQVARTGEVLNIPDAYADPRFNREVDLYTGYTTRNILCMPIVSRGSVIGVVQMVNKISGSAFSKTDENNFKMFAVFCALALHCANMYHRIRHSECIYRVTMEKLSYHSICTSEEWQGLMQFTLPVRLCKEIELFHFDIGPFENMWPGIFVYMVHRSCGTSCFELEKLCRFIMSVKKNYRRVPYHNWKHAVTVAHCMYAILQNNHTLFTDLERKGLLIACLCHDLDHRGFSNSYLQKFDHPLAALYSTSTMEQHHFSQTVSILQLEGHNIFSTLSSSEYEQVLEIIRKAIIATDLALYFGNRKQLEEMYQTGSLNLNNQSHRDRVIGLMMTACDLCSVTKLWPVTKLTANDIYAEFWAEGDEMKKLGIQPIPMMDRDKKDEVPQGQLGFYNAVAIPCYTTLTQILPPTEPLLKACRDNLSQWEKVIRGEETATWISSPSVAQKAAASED
Sequence of PDE 11A1 (Q9HCR9 445-933): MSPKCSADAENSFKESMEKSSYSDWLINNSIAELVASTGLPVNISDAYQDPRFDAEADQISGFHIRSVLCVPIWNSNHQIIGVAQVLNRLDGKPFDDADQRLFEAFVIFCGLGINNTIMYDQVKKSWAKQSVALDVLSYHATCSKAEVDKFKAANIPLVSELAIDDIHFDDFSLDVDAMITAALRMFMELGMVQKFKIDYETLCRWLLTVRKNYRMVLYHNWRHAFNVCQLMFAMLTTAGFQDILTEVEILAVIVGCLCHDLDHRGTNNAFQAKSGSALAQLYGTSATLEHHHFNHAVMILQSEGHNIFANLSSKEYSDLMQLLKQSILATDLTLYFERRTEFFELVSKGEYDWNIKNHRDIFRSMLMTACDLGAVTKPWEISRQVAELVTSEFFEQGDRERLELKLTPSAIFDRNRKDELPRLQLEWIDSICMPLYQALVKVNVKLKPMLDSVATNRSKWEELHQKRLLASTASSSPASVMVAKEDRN
Sequence of PDE 3A (Q14432 whole entry): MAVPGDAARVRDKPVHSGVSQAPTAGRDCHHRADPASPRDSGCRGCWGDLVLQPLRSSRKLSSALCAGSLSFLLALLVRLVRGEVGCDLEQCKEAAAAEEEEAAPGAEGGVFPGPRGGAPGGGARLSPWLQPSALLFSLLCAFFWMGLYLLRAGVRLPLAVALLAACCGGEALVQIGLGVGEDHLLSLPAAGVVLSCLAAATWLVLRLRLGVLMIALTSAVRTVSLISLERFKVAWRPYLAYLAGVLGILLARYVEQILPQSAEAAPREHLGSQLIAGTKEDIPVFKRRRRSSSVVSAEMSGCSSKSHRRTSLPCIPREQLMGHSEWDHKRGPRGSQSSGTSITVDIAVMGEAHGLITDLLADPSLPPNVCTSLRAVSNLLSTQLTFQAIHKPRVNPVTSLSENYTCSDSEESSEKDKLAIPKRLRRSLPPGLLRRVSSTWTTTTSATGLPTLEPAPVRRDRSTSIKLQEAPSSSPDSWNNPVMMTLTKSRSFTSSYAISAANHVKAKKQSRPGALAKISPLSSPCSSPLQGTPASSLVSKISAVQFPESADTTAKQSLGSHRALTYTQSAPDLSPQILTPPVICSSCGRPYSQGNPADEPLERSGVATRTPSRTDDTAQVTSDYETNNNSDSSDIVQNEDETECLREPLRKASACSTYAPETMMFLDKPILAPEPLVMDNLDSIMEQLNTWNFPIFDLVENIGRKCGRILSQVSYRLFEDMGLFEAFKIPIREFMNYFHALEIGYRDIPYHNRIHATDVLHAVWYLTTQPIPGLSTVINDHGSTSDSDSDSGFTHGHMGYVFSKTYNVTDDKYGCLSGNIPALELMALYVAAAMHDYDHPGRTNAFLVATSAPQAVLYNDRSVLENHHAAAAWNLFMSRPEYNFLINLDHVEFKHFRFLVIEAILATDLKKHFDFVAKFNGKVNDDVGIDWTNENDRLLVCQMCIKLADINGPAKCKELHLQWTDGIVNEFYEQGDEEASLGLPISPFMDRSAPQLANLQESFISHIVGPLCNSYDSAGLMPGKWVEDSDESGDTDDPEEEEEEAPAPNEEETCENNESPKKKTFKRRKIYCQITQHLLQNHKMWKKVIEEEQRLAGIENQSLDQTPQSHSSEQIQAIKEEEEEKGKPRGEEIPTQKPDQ

As for `CC(C)C(=O)c1c(C(C)C)nn2ccccc12` [ibudilast, 2-methyl-1-(2-(1-methylethyl)pyrazolo(1,5-a)pyridin-3-yl)1-propanone], the “inhibition of PDE 10A1” value on PDE 10A1 is on record as “selective inhibitor”. Further, in the data set on MIF, the “plasma level of MIF” value is “lowers”. The “inhibition of PDE 11A1” value at PDE 11A1 is recorded as “selective inhibitor”. For the same molecule, on PDE 3A, the “inhibition of PDE 3A” value was “selective inhibitor”. Also, the “inhibition of HPP tautomerase activity of MIF” value in data set [1] is reported as “allosteric inhibitor”. The “inhibition of PDE 4” value in the data set with PDE 4 is “selective inhibitor”. In addition, the TLR4 antagonistic activity result in data set [2] is given as “antagonistic activity”. The CNS penetration result in data set [3] is given as “good CNS penetration”.
